These results are taken from US20210278408A1, “METHODS OF TREATMENT OF CANCER WITH SUBSTITUTED PYRROLE AND PYRAZOLE COMPOUNDS AND DIAGNOSIS OF CANCERS SUSCEPTIBLE TO TREATMENT WITH SUBSTITUTED PYRROLE AND PYRAZOLE COMPOUNDS” (Bantam Pharmaceutical, LLC, priority 2018, published 2021).

The subject of test [1] is ATF4, ATF6, ERN1/XBP1 and cell cycle regulated genes. The test can be described thus: mRNA expression profiling by QPCR in NHLF, HCT-116, HAP1 and SU-DHL-2. In kind it is cell-based, human. Conditions: 5 μM, 8 hrs. On the procedure:
FIG. 11 is a graph of expression of ATF4, ATF6, Xbp1, and cell cycle regulated genes in Compound A197 responsive cell lines. All cells were treated with 5 […] Compound A197 for 8 hrs, then RNA was isolated and specific gene expression determined by qPCR. All data are represented as Log2 Fc. *=p<0.05, n=3.
ATF4-mediated gene expression profile is induced by compounds. ATF4 activation is closely aligned with activation of ER stress and the related TF's ATF6, ERN1 and XBP1. To determine the role of each transcription factor, a set of fifteen genes were selected to evaluate the specificity of the response as related ATF4 and to other transcription factors. […] These genes can be regulated in a variety of ways and so reflect an outcome of compound action: cell cycle arrest.
Four cell lines were chosen for gene expression profiling. Normal Human Lung Fibroblasts were chosen as an example of a non-responsive cell line. The colorectal cancer cell line HCT-116 and the chronic myelogenous leukemia line HAP1 were chosen as examples of cell lines responsive to compound undergoing growth arrest. The diffuse large B-Cell lymphoma line SU-DHL-2 was chosen as a cell line undergoing growth arrest and apoptosis. […] RNA recovery is determined using a NanoDrop nucleic acid quantification device. […] The change in gene expression relative to vehicle is calculated using Expression Analysis software (ThermoFisher).

Another test concerns SU-DHL-2. The experiment in a line: Apoptosis, 72 hr: SU-DHL-2. In kind it is cell-based, human.

Each structure is given as a SMILES string.

In the case of `Cc1nn(-c2nc(-c3ccc(C(F)(F)F)cc3)c(SC(C)C)s2)c(C(=O)O)c1-c1cccc(F)c1` [Compound A197, 4-(3-fluorophenyl)-1-(5-(isopropylthio)-4-(4-(trifluoromethyl)phenyl)thiazol-2-yl)-3-methyl-1H-pyrazole-5-carboxylic acid], the “CDKN1A (p21/Waf1) mRNA expression” value in test [1] is given as “increased”. The “induction of ATF4, ATF6 or IRE1/Xbp1 regulated genes” value in test [1] (HCT-116, HAP-1, SU-DHL-2, NHLF) is “preferentially induces ATF4, but not ATF6 or IRE1/Xbp1 regulated genes in three responsive tumor cell lines (HCT-116, HAP-1 and SU-DHL-2) but not in primary NHLF”. Besides, the “Apoptosis, 72 hr” value in the test with SU-DHL-2 is recorded as “Yes”.
